Data from article PMC8694140, “Synthesis and photobiological applications of naphthalimide–benzothiazole conjugates: cytotoxicity and topoisomerase IIα inhibition” (RSC Advances, 2021).

Key:
[1] = biological target: T1, human serum albumin (HSA) (Homo sapiens, UniProt P02768); assay: Synchronous fluorescence spectroscopy of HSA; assay type: binding; settings: Δλ = 15 nm, tyrosine residue
Text: Synchronous fluorescence spectroscopy (SFS) is commonly used to evaluate the effect of ligand binding on the microenvironment of protein and its amino acids. It is usually observed that a change in polarity of the chromophore of protein causes deviation in the excitation wavelength of a particular amino acid residue.[48,49] This deviation can provide information about the change in confirmation of HSA on the binding of ligand. The SFS of HSA was noted using a fixed difference in wavelengths (Δλ) of 15 nm and 60 nm of synchronized recording of excitation and emission monochromators, which are characteristics of tyrosine and tryptophan amino acid residues, respectively.[50,51] […] The addition of compounds 12 and 13 produced a slight blue shift of about 4 nm at Δλ = 15 nm, corresponding to a tyrosine residue.
The synchronous fluorescence experiment of HSA was performed at a fixed amount of HSA and increasing concentrations of compounds 12 and 13. The spectra were recorded by taking the difference between the wavelengths of excitation and emission (Δλ = λemi − λexc) at 15 nm and 60 nm.

[2] = test system: HeLa (cervix) human cancer cell line; assay: MTT cytotoxicity assay, HeLa; assay type: cell-based; settings: Homo sapiens, 48 h
Method: Human malignant cell lines, i.e., MCF7 (breast), HeLa (cervix), and A549 (lung), as well as non-cancerous human cell line Hek293 (kidney), were cultured using the Ham's media or DMEM having 10% FBS, […] streptomycin, 100 U ml^−1 penicillin, and 50 mM glutamine. For seeding of cells, 96 well plates were used, maintaining the density of […] cells per well with the help of DMEM as a media having 10% FBS cells. Then, seeded cells were incubated in an incubator having a 5% CO2 supply at 37 °C. Compounds were added to the wells at 1, 10, and 100 μM concentrations, and cells were incubated for 48 h at 37 °C and then added 10 μl of MTT to each well prepared from 5 mg ml^−1 stock solution using 1 × PBS buffer and were incubated for 4 h at 37 °C in the dark. DMSO (100 μl) was used to dissolve the formazan crystals. To determine the concentration of formazan, the crystal absorbance difference was recorded at 570 nm. The percentage of relative cell toxicity was calculated by using the following eqn (1):1 [drawing 1]

[3] = biological target: T1, human serum albumin (HSA); assay: Energy transfer (FRET) between HSA and compounds; assay type: binding; settings: compound acceptor; for E (efficiency of energy transfer) / R0 (critical distance, 50% efficiency of energy transfer): HSA donor
Text: Eqn (8)–(10) are used to calculate the values of overlap integral of an emission spectrum of donor with the absorption spectrum of the acceptor (J), the critical distance (50% efficiency of energy transfer, R0), efficiency of energy transfer (E), and the distance among donor and acceptor (r). […] The calculated distance between donor and acceptor for compounds 12 and 13 was found less than 8 nm, and both compounds follow 0.5R0 < r < 1.5R0.
The energy transfer study was accomplished by recording the HSA emission spectrum at 280 nm excitation wavelength and the absorption spectra of compounds 12 and 13.
The following eqn (8)–(10) were used to determine the donor to acceptor energy transfer (E), the critical distance required for energy transfer by 50% (R0), overlap integral of the emission spectrum of donor with the absorption spectrum of the acceptor (J), and distance among the donor and the acceptor (r):[39,57]8 [drawing 6] In this equation, F0 and F denote the emission intensities of HSA in free form and the presence of compounds 12 and 13, respectively.9 R0^6 = 8.8 × 10^−25k^2η^−4ϕJwhere k^2, η, ϕ denote the orientation factor of dipoles, refracted index for used medium, and fluorescence quantum yield of the donor.10 [drawing 7] In this equation, F(λ) denotes the emission intensity for the free form of the donor at the wavelength λ, whereas ε(λ) denotes the molar absorption coefficient of acceptor at the wavelength λ.

[4] = biological target: T1, human serum albumin (HSA); assay: UV-vis absorption titration of HSA (Benesi–Hildebrand); assay type: binding; settings: HSA 10 μM; for enhancement in absorbance of HSA at 280 nm: compound up to 7 μM; for Kd: UV-vis, phosphate buffer pH 7.4, 298 K, read-out: binding constant compound–HSA (Benesi–Hildebrand) (converted)
Method: To check the interactions between HSA and compounds, UV-vis absorption spectra of HSA (10 μM) were recorded in the absence and incremental additions of compounds 12 and 13 (7 μM). Noteworthy, enhancement in absorbance of HSA at 280 nm (57% for compound 12 and 51% for compound 13) on increasing concentrations of compounds indicated perturbations in the microenvironment of protein's chromophores as a result of interaction between HSA and compounds along with the development of new band at 348 nm (Fig. 4). Increasing the concentration of compounds also produces an enhancement in absorbance value at 348 nm. The binding constants for the compound–HSA system were calculated by Benesi–Hildebrand eqn (2)[32] as 1.75 × 10^5 M^−1 for compound 12 and 1.88 × 10^5 M^−1 for compound 13 (Fig. S57 ^†). These strong binding affinities are favorable for the adequate transportation of these compounds to their target sites.
To record the absorption spectra of HSA, a fixed amount of HSA (10 μM) was titrated with the increasing concentrations of compounds 12 and 13 (7 μM) in the phosphate buffer of pH 7.4 at 298 K. The phosphate buffer was used as a blank solution for baseline corrections. The absorption spectra were recorded in the range of 200–800 nm. […] To calculate the Kb value, the ratio of intercept to the slope was used as A0/(A − A0) versus 1/[compound] plots.

T1 sequence (P02768 25-609): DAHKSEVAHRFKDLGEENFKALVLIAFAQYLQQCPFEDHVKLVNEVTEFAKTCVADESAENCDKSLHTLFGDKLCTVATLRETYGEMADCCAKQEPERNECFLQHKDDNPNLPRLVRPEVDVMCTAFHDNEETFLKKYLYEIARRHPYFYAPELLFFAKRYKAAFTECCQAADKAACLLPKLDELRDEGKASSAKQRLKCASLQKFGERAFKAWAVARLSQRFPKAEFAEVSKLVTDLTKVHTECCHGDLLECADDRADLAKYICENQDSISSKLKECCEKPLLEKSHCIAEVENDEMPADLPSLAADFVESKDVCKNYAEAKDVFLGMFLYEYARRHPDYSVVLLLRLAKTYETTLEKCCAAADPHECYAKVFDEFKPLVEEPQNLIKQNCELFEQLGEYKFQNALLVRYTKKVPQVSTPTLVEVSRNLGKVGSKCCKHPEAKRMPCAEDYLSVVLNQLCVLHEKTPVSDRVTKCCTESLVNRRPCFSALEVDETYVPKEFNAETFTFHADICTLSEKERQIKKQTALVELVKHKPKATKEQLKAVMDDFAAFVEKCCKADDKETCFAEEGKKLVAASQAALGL

| SMILES | blue shift of synchronous fluorescence of HSA [1] | melting point [°C] | IC50 [2] [µM] | E (efficiency of energy transfer) [3] | R0 (critical distance, 50% efficiency of energy transfer) [3] [nm] | J (overlap integral of donor emission with acceptor absorption) [3] | r (distance among donor and acceptor) [3] [nm] | enhancement in absorbance of HSA at 280 nm [4] [%] | Kd [4] [µM] |
| --- | --- | --- | --- | --- | --- | --- | --- | --- | --- |
| C#CCN1C(=O)c2cccc3c(-c4ccc5c(c4)c(-c4nc6ccccc6s4)cn5CC=C)ccc(c23)C1=O [Compound 13, 6-(1-Allyl-3-(benzo[d]thiazol-2-yl)-1H-indol-5-yl)-2-(prop-2-yn-1-yl)-1H-benzo[de]isoquinoline-1,3(2H)-dione] | about 4 nm | 282 to 285 | 3.64 ± 0.19 | 0.93 | 0.591 | 1.039 × 10^−18 cm^3 L mol^−1 | 0.377 | 51 | 5.32 |
| C=CCn1cc(-c2nc3ccccc3s2)c2cc(-c3ccc4c5c(cccc35)C(=O)N(CCO)C4=O)ccc21 [Compound 12, 6-(1-Allyl-3-(benzo[d]thiazol-2-yl)-1H-indol-5-yl)-2-(2-hydroxyethyl)-1H-benzo[de]isoquinoline-1,3(2H)-dione] | about 4 nm | 292 to 295 | 3.76 ± 0.2 | 0.92 | 0.592 | 1.04 × 10^−18 cm^3 L mol^−1 | 0.393 | 57 | 5.71 |
